# “And” between values parts separate entries of the source, which are not always exact repeats. Identical values can stand only once.
# Tests used:
# [1] = Stability of the five compounds in SD rat plasma (QC samples, UHPLC-ESI-MS/MS); type: in vitro ADME; settings: for stability, Accuracy (measured versus nominal concentration) / stability, mean ± SD (measured concentration): SD rat plasma, n=5
# Description: The method was validated according to the US Food and Drug Administration (FDA) Bioanalytical Method Validation Guidance as follows: [1] specificity was assessed by analyzing blank plasma, blank plasma spiked with standard solutions and rat plasma samples after oral administration. Each calibration curve was plotted using the concentration of the standard solution as the horizontal coordinate and the ratio of analyte to internal standard peak area as the vertical coordinate. The lower limit of quantification (LLOQ) refers to the lowest concentration, which is typically 10 times the signal-to-noise ratio. It has an acceptable accuracy of ± 20% and a precision of less than 20% [3]. Quality Control (QC) samples (low, medium and high concentrations) were prepared for each analyte. Five samples were analyzed at each concentration level and three consecutive batches were determined to calculate the accuracy and precision of the method. Extraction recovery was assessed by the ratio of the average peak area of routinely prepared QC samples (low, medium, and high concentrations) to the post-extraction plasma sample. Likewise, matrix effect was assessed by the ratio of peak areas between post-extraction samples spiked with analytes and mobile phases spiked with the same concentration of analytes.
# [2] = male, Sprague Dawley, rat, in vivo, po, 352 mg/kg
# in vivo = settings: male, Sprague Dawley, rat, po, 352 mg/kg
# [3] = nominal 20 ng/mL, 3 freeze-thaw cycles
# [4] = nominal 20 ng/mL, 7 days at -80°C
# [5] = nominal 20 ng/mL, Room temperature 24h
# [6] = nominal 1000 ng/mL, 3 freeze-thaw cycles
# [7] = nominal 1000 ng/mL, 7 days at -80°C
# [8] = nominal 1000 ng/mL, Room temperature 24h
# [9] = nominal 5000 ng/mL, 3 freeze-thaw cycles
# [10] = nominal 5000 ng/mL, 7 days at -80°C
# [11] = nominal 5000 ng/mL, Room temperature 24h
structure (smiles),measurement,setting,value
"C=C1CC[C@@H]2[C@H]3[C@@H](CC[C@H]2C)[C@@H](C)C(=O)O[C@H]13 [ARTI, Arteannuin I]","Stability in plasma, measured concentration (mean ± SD)","[1]; 3 freeze-thaw cycles, QC concentration 20 ng/mL",21.0 ± 1.74 ng/mL and 21.0437 ng/mL
same,"Stability in plasma, measured concentration (mean ± SD)","[1]; 3 freeze-thaw cycles, QC concentration 1000 ng/mL",942 ± 21.5 ng/mL and 941.9 ng/mL
same,"Stability in plasma, measured concentration (mean ± SD)","[1]; 3 freeze-thaw cycles, QC concentration 5000 ng/mL",4532 ± 63.0 ng/mL and 4531.84 ng/mL
same,"Stability in plasma, measured concentration (mean ± SD)","[1]; 7 days at -80°C, QC concentration 20 ng/mL",20.6 ± 1.03 ng/mL and 20.6026 ng/mL
same,"Stability in plasma, measured concentration (mean ± SD)","[1]; 7 days at -80°C, QC concentration 1000 ng/mL",920 ± 31.6 ng/mL and 920.324 ng/mL
same,"Stability in plasma, measured concentration (mean ± SD)","[1]; 7 days at -80°C, QC concentration 5000 ng/mL",4563 ± 143 ng/mL and 4562.63 ng/mL
same,"Stability, measured concentration, mean ± SD","[1]; QC sample 20 ng/mL, 3 freeze-thaw cycles",21.0 ± 1.74 ng/mL
same,"Stability, measured concentration, mean ± SD","[1]; QC sample 20 ng/mL, 7 days at -80°C",20.6 ± 1.03 ng/mL
same,"Stability, measured concentration, mean ± SD","[1]; QC sample 20 ng/mL, Room temperature 24h",21.1 ± 0.78 ng/mL
same,"Stability, measured concentration, mean ± SD","[1]; QC sample 1000 ng/mL, 3 freeze-thaw cycles",942 ± 21.5 ng/mL
same,"Stability, measured concentration, mean ± SD","[1]; QC sample 1000 ng/mL, 7 days at -80°C",920 ± 31.6 ng/mL
same,"Stability, measured concentration, mean ± SD","[1]; QC sample 1000 ng/mL, Room temperature 24h",1003 ± 39.5 ng/mL
same,"Stability, measured concentration, mean ± SD","[1]; QC sample 5000 ng/mL, 3 freeze-thaw cycles",4532 ± 63.0 ng/mL
same,"Stability, measured concentration, mean ± SD","[1]; QC sample 5000 ng/mL, 7 days at -80°C",4563 ± 143 ng/mL
same,"Stability, measured concentration, mean ± SD","[1]; QC sample 5000 ng/mL, Room temperature 24h",4765 ± 218 ng/mL
same,"Stability in plasma, measured concentration (mean ± SD)","[1]; Room temperature 24h, QC concentration 20 ng/mL",21.1 ± 0.78 ng/mL and 21.1244 ng/mL
same,"Stability in plasma, measured concentration (mean ± SD)","[1]; Room temperature 24h, QC concentration 1000 ng/mL",1002.91 ng/mL and 1003 ± 39.5 ng/mL
same,"Stability in plasma, measured concentration (mean ± SD)","[1]; Room temperature 24h, QC concentration 5000 ng/mL",4764.7 ng/mL and 4765 ± 218 ng/mL
same,"stability, Accuracy (measured versus nominal concentration)",[1]; [3],105.22%
same,"stability, mean ± SD (measured concentration)",[1]; [3],21.0 ± 1.74 ng/mL
same,"stability, Accuracy (measured versus nominal concentration)",[1]; [4],103.01%
same,"stability, mean ± SD (measured concentration)",[1]; [4],20.6 ± 1.03 ng/mL
same,"stability, Accuracy (measured versus nominal concentration)",[1]; [5],105.62%
same,"stability, mean ± SD (measured concentration)",[1]; [5],21.1 ± 0.78 ng/mL
same,"stability, Accuracy (measured versus nominal concentration)",[1]; [6],94.19%
same,"stability, mean ± SD (measured concentration)",[1]; [6],942 ± 21.5 ng/mL
same,"stability, Accuracy (measured versus nominal concentration)",[1]; [7],92.03%
same,"stability, mean ± SD (measured concentration)",[1]; [7],920 ± 31.6 ng/mL
same,"stability, Accuracy (measured versus nominal concentration)",[1]; [8],100.29%
same,"stability, mean ± SD (measured concentration)",[1]; [8],1003 ± 39.5 ng/mL
same,"stability, Accuracy (measured versus nominal concentration)",[1]; [9],90.64%
same,"stability, mean ± SD (measured concentration)",[1]; [9],4532 ± 63.0 ng/mL
same,"stability, Accuracy (measured versus nominal concentration)",[1]; [10],91.25%
same,"stability, mean ± SD (measured concentration)",[1]; [10],4563 ± 143 ng/mL
same,"stability, Accuracy (measured versus nominal concentration)",[1]; [11],95.29%
same,"stability, mean ± SD (measured concentration)",[1]; [11],4765 ± 218 ng/mL
same,CL,[2],0.016 ± 0.006 L/h
same,Vz,[2],0.114 ± 0.041 L
same,AUC(0-inf),in vivo,1390 ± 586 ng·h/mL
same,AUC(0-t),in vivo,990 ± 284 ng·h/mL
same,Cmax,in vivo; Cmax,222 ± 46.4 ng/mL
same,MRT last,in vivo; MRT(0-t),4.34 ± 0.957 h
same,half-life,in vivo; t1/2,5.14 ± 1.8 h

# Reference: article PMC12058161, “The plant matrix of Artemisia annua L. for the treatment of malaria: Pharmacodynamic and pharmacokinetic studies” (PLOS One, 2025)
